From patent US9050345B2, “Pyrrolotriazines as potassium ion channel inhibitors” (BRISTOL-MYERS SQUIBB COMPANY, priority 2013, dated 2015)

target: T1, human KV 1.5 (IKur) (Homo sapiens, UniProt P22460); assay: block of IKur current in patch clamped L-929 cells expressing human Kv1.5; assay type: cell-based; settings: 0.3 μM; patch clamped mammalian L-929 cells stably expressing human Kv1.5
T1 construct: expressed in transfected cells
T1 sequence (P22460 whole entry): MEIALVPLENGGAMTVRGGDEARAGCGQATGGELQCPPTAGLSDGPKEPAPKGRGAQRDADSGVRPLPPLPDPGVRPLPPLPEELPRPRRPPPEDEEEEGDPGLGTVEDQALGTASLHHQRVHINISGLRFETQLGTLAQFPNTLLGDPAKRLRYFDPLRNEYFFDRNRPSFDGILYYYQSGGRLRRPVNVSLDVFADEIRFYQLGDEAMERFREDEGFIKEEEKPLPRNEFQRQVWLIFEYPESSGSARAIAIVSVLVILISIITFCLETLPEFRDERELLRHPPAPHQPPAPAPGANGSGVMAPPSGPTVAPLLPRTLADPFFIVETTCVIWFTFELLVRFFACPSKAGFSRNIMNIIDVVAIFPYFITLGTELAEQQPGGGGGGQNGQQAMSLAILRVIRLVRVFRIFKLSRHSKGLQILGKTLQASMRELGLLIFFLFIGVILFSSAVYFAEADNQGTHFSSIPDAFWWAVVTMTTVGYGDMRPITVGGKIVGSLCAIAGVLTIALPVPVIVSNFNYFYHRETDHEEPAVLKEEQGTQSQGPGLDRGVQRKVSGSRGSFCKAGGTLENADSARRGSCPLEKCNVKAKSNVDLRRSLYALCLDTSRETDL

Row | KV1_5% Inh L929 @0.3 μM [%] | Structure (SMILES)
1 | 95.79 | CC(Nc1nc(-c2cncc(S(N)(=O)=O)c2)nn2ccc(-c3ccccc3)c12)c1ccccc1 (stereo not drawn) [Example 8, 5-(5-Phenyl-4-(1-phenylethylamino)pyrrolo[1,2-f][1,2,4]triazin-2-yl)pyridine-3-sulfonamide]
2 | 97.45 | NS(=O)(=O)CCc1cncc(-c2nc(NCc3ccccn3)c3c(-c4ccccc4)ccn3n2)c1 [Example 38, 2-(5-(5-Phenyl-4-(pyridin-2-ylmethylamino)pyrrolo[1,2-f][1,2,4]triazin-2-yl)pyridin-3-yl)ethanesulfonamide]
3 | 95.01 | NS(=O)(=O)c1cncc(-c2nc(NC(CO)c3ccccn3)c3c(-c4ccccc4)ccn3n2)c1 (stereo not drawn) [Example 33, 5-(4-((2-Hydroxy-1-(pyridin-2-yl)ethyl)amino)-5-phenylpyrrolo[2,1-f][1,2,4]triazin-2-yl)pyridine-3-sulfonamide]

same assay, conditions: L929, 0.3 μM; patch clamped mammalian L-929 cells stably expressing human Kv1.5; read-out: KV1_5% Inh L929 @0.3 μM

Row | Structure (SMILES) | inhibition at 0.3 µM [%]
4 | Nc1ncc(-c2nc(NCc3ccccn3)c3c(-c4ccccc4)ccn3n2)cc1S(N)(=O)=O [Example 130, 2-amino-5-(5-phenyl-4-((pyridin-2-ylmethyl)amino)pyrrolo [2,1-f][1,2,4]triazin-2-yl)pyridine-3-sulfonamide] | 97.6
5 | CC1(C)OCC(CNC(=O)c2cncc(-c3nc(NCc4ccccc4)c4c(-c5ccccc5)ccn4n3)c2)O1 (stereo not drawn) [Example 90, 5-(4-(benzylamino)-5-phenylpyrrolo [1,2-f][1,2,4]triazin-2-yl)-N-((2,2-dimethyl-1,3-dioxolan-4-yl)methyl)nicotinamide] | 96
6 | NS(=O)(=O)c1cncc(-c2nc(NCc3ccccn3)c3c(-c4ccc(F)cc4)ccn3n2)c1 [Example 6, 5-(5-(4-Fluorophenyl)-4-(pyridin-2-ylmethylamino)pyrrolo[1,2-f][1,2,4]triazin-2-yl)pyridine-3-sulfonamide] | 91.7
7 | CC(=O)NC1(c2nc(NCc3ccccn3)c3c(-c4ccccc4)ccn3n2)CC1 [Example 36, N-(1-(5-Phenyl-4-(pyridin-2-ylmethylamino)pyrrolo[1,2-f][1,2,4]triazin-2-yl)cyclopropyl)acetamide] | 46
8 | CS(=O)(=O)Nc1cncc(-c2nc(NCc3ccccn3)c3c(-c4ccccc4)ccn3n2)c1 [Example 3, N-(5-(5-Phenyl-4-(pyridin-2-ylmethylamino)pyrrolo[1,2-f][1,2,4]triazin-2-yl)pyridin-3-yl)methanesulfonamide] | 94.1
9 | COC(=O)c1ccccc1CNc1nc(-c2cncc(S(N)(=O)=O)c2)nn2ccc(-c3ccccc3)c12 [Example 167, methyl 2-(((5-phenyl-2-(5-sulfamoylpyridin-3-yl)pyrrolo[2,1-f][1,2,4]triazin-4-yl)amino)methyl) benzoate] | 89.8
10 | Nc1cncc(-c2nc(NCC3CCCCC3)c3c(-c4ccccc4)ccn3n2)c1 [Example 73, 2-(5-aminopyridin-3-yl)-N-(cyclohexylmethyl)-5-phenylpyrrolo[1,2-f] [1,2,4] triazin-4-amine] | 88.3
11 | O=C(c1nc(NCc2ccccc2)c2c(-c3ccccc3)ccn2n1)N1CCN(c2ccc(O)cc2)CC1 [Example 120, (4-(benzylamino)-5-phenylpyrrolo [1,2-f][1,2,4]triazin-2-yl)(4-(4-hydroxyphenyl)piperazin-1-yl)methanone] | 49
12 | CS(=O)(=O)Nc1ccccc1CNc1nc(-c2cncc(S(N)(=O)=O)c2)nn2ccc(-c3ccccc3)c12 [Example 179, 5-(4-((2-(methylsulfonamido)benzyl)amino)-5-phenylpyrrolo [2,1-f][1,2,4]triazin-2-yl)pyridine-3-sulfonamide] | 90.1
13 | NS(=O)(=O)c1cncc(-c2nc(NCc3ncc[nH]3)c3c(-c4ccccc4)ccn3n2)c1 [Example 146, 5-(4-((1H-imidazol-2-yl)methylamino)-5-phenylpyrrolo [1,2-f][1,2,4]triazin-2-yl)pyridine-3-sulfonamide] | 78.7
14 | CCOC(=O)CS(=O)(=O)Nc1cncc(-c2nc(NCc3ccccn3)c3c(-c4ccccc4)ccn3n2)c1 [Example 51, ethyl 2-(N-(5-(5-phenyl-4-(pyridin-2-ylmethylamino)pyrrolo[1,2-f][1,2,4]triazin-2-yl)pyridin-3-yl)sulfamoyl)acetate] | 88.2
15 | N#Cc1cccc(-c2ccn3nc(-c4cncc(N)c4)nc(NCc4ccccn4)c23)c1 [Example 69, 3-(2-(5-aminopyridin-3-yl)-4-(pyridin-2-ylmethylamino)pyrrolo [1,2-f][1,2,4]triazin-5-yl)benzonitrile] | 80.3
16 | CCCS(=O)(=O)Nc1cncc(-c2nc(NCc3ccccn3)c3c(-c4ccccc4)ccn3n2)c1 [Example 57, N-(5-(5-phenyl-4-(pyridin-2-ylmethylamino)pyrrolo[1,2-f][1,2,4]triazin-2-yl)pyridin-3-yl) propane-1-sulfonamide] | 95.5
17 | CC(Nc1nc(-c2cncc(S(N)(=O)=O)c2)nn2ccc(-c3ccccc3)c12)c1ccccc1 (stereo not drawn) [Example 8, 5-(5-Phenyl-4-(1-phenylethylamino)pyrrolo[1,2-f][1,2,4]triazin-2-yl)pyridine-3-sulfonamide] | 97.5
18 | NC(=O)Nc1cncc(-c2nc(NCc3ccccn3)c3c(-c4ccccc4)ccn3n2)c1 [Example 25, 1-(5-(5-Phenyl-4-(pyridin-2-ylmethylamino)pyrrolo[1,2-f][1,2,4]triazin-2-yl)pyridin-3-yl)urea] | 96.8
19 | NC(=O)CS(=O)(=O)Nc1cncc(-c2nc(NCc3ccccn3)c3c(-c4ccccc4)ccn3n2)c1 [Example 55, 2-(N-(5-(5-phenyl-4-(pyridin-2-ylmethylamino)pyrrolo[1,2-f][1,2,4]triazin-2-yl)pyridin-3-yl)sulfamoyl)acetamide] | 20.6
20 | NS(=O)(=O)c1cncc(-c2nc(NCc3ccccn3)c3c(-c4ccccc4Cl)ccn3n2)c1 [Example 136, 5-(5-(2-chlorophenyl)-4-((pyridin-2-ylmethyl)amino)pyrrolo [2,1-f][1,2,4]triazin-2-yl)pyridine-3-sulfonamide] | 98.7
21 | NS(=O)(=O)c1cncc(-c2nc(NCCOc3cnccn3)c3c(-c4ccccc4)ccn3n2)c1 [Example 23, 5-(5-Phenyl-4-((2-(pyrazin-2-yloxy)ethyl)amino)pyrrolo[2,1-f][1,2,4]triazin-2-yl)pyridine-3-sulfonamide] | 91.6
22 | NS(=O)(=O)c1cncc(-c2nc(NCc3ccccn3)c3c(-c4ccccc4F)ccn3n2)c1 [Example 166, 5-(5-(2-fluorophenyl)-4-((pyridin-2-ylmethyl)amino)pyrrolo [2,1-f][1,2,4]triazin-2-yl)pyridine-3-sulfonamide] | 98
23 | O=C(NCC(O)CO)c1cncc(-c2nc(NCc3ccccc3)c3c(-c4ccccc4)ccn3n2)c1 (stereo not drawn) [Example 96, 5-(4-(benzylamino)-5-phenylpyrrolo [1,2-f][1,2,4]triazin-2-yl)-N-(2,3-dihydroxypropyl) nicotinamide] | 95.7
24 | NS(=O)(=O)c1cncc(-c2nc(NC(CO)c3ccccn3)c3c(-c4ccccc4)ccn3n2)c1 (stereo not drawn) [Example 33, 5-(4-((2-Hydroxy-1-(pyridin-2-yl)ethyl)amino)-5-phenylpyrrolo[2,1-f][1,2,4]triazin-2-yl)pyridine-3-sulfonamide] | 87.8
25 | N#Cc1cccc(-c2nc(NCc3ccccn3)c3c(-c4ccccc4)ccn3n2)c1 [Example 66, 3-(5-phenyl-4-(pyridin-2-ylmethylamino)pyrrolo[1,2-f][1,2,4]triazin-2-yl)benzonitrile] | 89.2

The next lines start with the values.

Row | inhibition at 0.3 µM [%] | Structure (SMILES)
26 | 96.9 | C1=C(c2nc(NCc3ccccc3)c3c(-c4ccccc4)ccn3n2)CCOC1 [Example 100, N-benzyl-2-(3,6-dihydro-2H-pyran-4-yl)-5-phenylpyrrolo [1,2-f][1,2,4] triazin-4-amine]
27 | 88.2 | O=C(O)c1cncc(-c2nc(NCc3ccccc3)c3c(-c4ccccc4)ccn3n2)c1 [Example 12, 5-(4-(Benzylamino)-5-phenylpyrrolo[1,2-f][1,2,4]triazin-2-yl)nicotinic acid]
28 | 17.6 | O=C(O)c1ccc(-c2nc(NCc3ccccc3)c3c(-c4ccccc4)ccn3n2)cn1 [Example 82, 5-(4-(benzylamino)-5-phenylpyrrolo [1,2-f][1,2,4]triazin-2-yl) picolinic acid]
29 | 92.4 | CC(C)(O)c1cncc(-c2nc(NCc3ccccc3)c3c(-c4ccccc4)ccn3n2)c1 [Example 17, 2-(5-(4-(Benzylamino)-5-phenylpyrrolo[1,2-f][1,2,4]triazin-2-yl)pyridin-3-yl)propan-2-ol]
30 | 45 | O=C(NC1(CO)CCCC1)c1nc(NCc2ccccc2)c2c(-c3ccccc3)ccn2n1 [Example 118, 4-(benzylamino)-N-(1-(hydroxymethyl)cyclopentyl)-5-phenylpyrrolo [1,2-f][1,2,4] triazine-2-carboxamide]
31 | 22.9 | O=C(O)CC(=O)Nc1cncc(-c2nc(NCc3ccccc3)c3c(-c4ccccc4)ccn3n2)c1 [Example 78, 3-(5-(4-(benzylamino)-5-phenylpyrrolo [1,2-f][1,2,4]triazin-2-yl)pyridin-3-ylamino)-3-oxopropanoic acid]
32 | 95.1 | COC(=O)C1CCCN1C(=O)c1cncc(-c2nc(NCc3ccccc3)c3c(-c4ccccc4)ccn3n2)c1 (stereo not drawn) [Example 22, Methyl 1-(5-(4-(benzylamino)-5-phenylpyrrolo[1,2-f][1,2,4]triazin-2-yl)nicotinoyl)pyrrolidine-2-carboxylate]
33 | 86.4 | O=C(Nc1ccncn1)c1nc(NCc2ccccc2)c2c(-c3ccccc3)ccn2n1 [Example 124, 4-(benzylamino)-5-phenyl-N-(pyrimidin-4-yl)pyrrolo[1,2-f][1,2,4] triazinc-2-carboxamide]
34 | 96.3 | COCCNC(=O)c1cncc(-c2nc(NCc3ccccc3)c3c(-c4ccccc4)ccn3n2)c1 [Example 85, 5-(4-(benzylamino)-5-phenylpyrrolo [1,2-f][1,2,4]triazin-2-yl)-N-(2-methoxyethyl) nicotinamide]
35 | 91.1 | NS(=O)(=O)c1cc(-c2nc(NCc3ccccc3)c3c(-c4ccccc4)ccn3n2)cnc1O [Example 16, 5-(4-(Benzylamino)-5-phenylpyrrolo[1,2-f][1,2,4]triazin-2-yl)-2-hydroxypyridine-3-sulfonamide]
36 | 61.7 | CC(=O)NS(=O)(=O)c1cncc(-c2nc(NCc3ccccc3)c3c(-c4ccccc4)ccn3n2)c1 [Example 91, N-(5-(4-(benzylamino)-5-phenylpyrrolo [1,2-f][1,2,4]triazin-2-yl)pyridin-3-ylsulfonyl)acetamide]
